The text below walks through data of patent US11207338B2, “Composition for preventing and treating osteoporosis, comprising dihydrophaseic acid 3′-O-β-D-glucopyranoside isolated from lycium root bark extracts” (DONG WOO DANG CO., LTD, priority 2015, dated 2021).

The test system of assay [1] is C3H10T1/2 cells. In words: Cell proliferation assay (EZ-Cytox, water-soluble tetrazolium salt). The class given is cell-based, mouse. The note with it: 5 μg/mL compared with 1 and 10 μg/ml. On the procedure:
(§1) C3H10T1/2 cells which are mouse mesenchymal stem cells and MC3T3-E1 cells which are pre-osteoblasts were cultured in Basal Medium Eagle (BME) medium supplemented with 10% fetal bovine serum, 1 mM sodium pyruvate, 100 units/L penicillin and 100 mg/L streptomycin and α-minimal essential medium (α-MEM) at 37° C. under 5% CO2.
(§2) The D3G fraction layer obtained in Examples 1 and 2 was dissolved in sterilized distilled water and divided into three groups of concentrations of 1 μg/ml, 5 μg/ml and 10 μg/ml, and then added them to C3H10T1/2 cells and MC3T3-E1 cells respectively and further cultured for 48 hours. Cells cultured in the absence of the D3G fraction layer were used as a control.
Cell proliferation assays were performed using a EZ-Cytox Enhanced Cell Viability Assay Kit product with water-soluble tetrazolium salt.
Specifically, C3H10T1/2 cells and MC3T3-E1 cells (3×10^3 cells/well) were inoculated into 96-well plates and cultured in growth medium at 37° C. for 24 hours in 5% CO2, and then the Lycium root bark extracts of three concentrations (1 μg/ml, 5 μg/ml and 10 μg/ml) were added to the cells and cultured for 2 days. […]
(§3) Statistical analysis was performed by student's t-test for the control group without extract treatment and for each treatment group with extract treatment, and expressed as *p<0.05 depending on significance level.

The test system of assay [2] is MC3T3-E1 cells. The assay is described as above. It counts as cell-based. Conditions: differentiation induced MC3T3-E1 cells; 5 μg/mL compared with 1 and 10 μg/ml. The method, then:
as §1
(§4) In the case of MC3T3-E1 cells, ascorbic acid (50 μg/ml) and β-Glycerophosphate (10 mM), which are the osteoblast differentiation-inducing agents, were added, and then differentiation was induced for 3 days before treatment with the D3G fraction layer.
as §2
Cell proliferation assays were performed using a EZ-Cytox Enhanced Cell Viability Assay Kit product with water-soluble tetrazolium salt. […]
as §3

Assay [3] relates to C3H10T1/2 cells. In words: Analysis of ALP activity. It counts as cell-based, mouse. On the procedure: as §1, §2
(§5) After culturing the D3G-treated experimental group treated with the three kinds of concentrations (1 μg/ml, 5 μg/ml, 10 μg/ml) and the control group for 48 hours, ALP activity of cells was measured. ALP activity was measured using a ALP Assay Kit.
Specifically, after washing the cells with the physiological saline, the cell lysed with cytolytic agent was treated with p-nitrophenyl phosphate which is a substrate of ALP and then cultured at 37° C. for 1 hour. Thereafter, 0.5N NaOH which is a reaction stop solution was added, and then the absorbance was measured at a wavelength of 405 nm. […]

Assay [4] relates to MC3T3-E1 cells. Kind of assay: Analysis of ALP activity. It counts as cell-based. On the procedure: as §1
In the case of MC3T3-E1 cells, ascorbic acid (50 μg/ml) and β-Glycerophosphate (10 mM), which are the osteoblast differentiation-inducing agents, were added, and then differentiation was induced for 3 days before treatment with the D3G fraction layer. […]
as §5
Specifically, after washing the cells with the physiological saline, the cell lysed with cytolytic agent was treated with p-nitrophenyl phosphate which is a substrate of ALP and then cultured at 37° C. for 1 hour. Thereafter, 0.5N NaOH which is a reaction stop solution was added, and then the absorbance was measured at a wavelength of 405 nm.
The effect of the cell ALP activity of the Lycium root bark extract in C3H10T1/2 cells and differentiation induced MC3T3-E1 cells was analyzed by the method as described above, and the results are shown in FIG. 4. […]

Assay [5] concerns MC3T3-E1 cells. In words: Analysis of mineralization action (alizarin red S staining). It counts as cell-based. Conditions: 5 μg/mL, 3 weeks, vs control. On the procedure:
as §4
The analysis of mineralization action of the cells was performed after incubation of the experimental group treated with 5 μg/ml of the D3G and the control group for 3 weeks. The analysis of mineralization action was performed using the Alizarlin red S staining method.

Assay [6] has as its system monocytes isolated from mouse bone marrow. Kind of assay: Osteoclast differentiation (TRAP activity and TRAP staining). The note with it: mouse monocytes with M-CSF and RANKL; 5 μg/ml; treated vs untreated. It counts as cell-based. The method, then: Osteoclasts was isolated from primary monocytes, which are the […] of osteoclasts from the bone marrow of a 6 week old mouse, and cultured them. After confirming that the osteoclasts isolated from mouse stem cells were monocytes isolated from the bone marrow of the mouse through FACS (FIG. 6a) (monocyte positive marker antibody: CD11b), an experiment was performed. Separated mouse monocytes were treated with 30 ng/ml M-CSF and 50 ng/ml LANKL, which are osteoclast differentiation-inducing agents, and differentiation was induced for 3 days before treatment with D3G fraction layer.
Osteoclasts are derived from stem cells and are responsible for bone resorption that destroys aged bone wherein bone remodeling is maintained through the balanced action of osteogenesis by osteoblasts and bone resorption by osteoclasts. To the monocytes extracted and cultured from the stem cells of the femoral region of the mouse, 30 ng/mL M-CSF and 50 ng/mL RANKL were added together and then cultured for 5 days. Thereafter, the activity of TRAP which is an osteoclast differentiation marker was measured.
After washing the cells with physiological saline, TRAP activity was measured by absorbance at a wavelength of 405 nm using an Acid-Phosphatase Kit, and after staining, the osteoclasts were observed through a microscope.

The subject of assay [7] is MC3T3-E1 cells. In words: Expression level of osteoblast differentiation gene markers (real-time PCR). It counts as cell-based. Conditions: differentiation-induced MC3T3-E1 cells; 5 μg/ml; relative to Gapdh. On the procedure:
as §4
The change in the expression levels of mRNAs of osteoblast differentiation gene markers, Alp, Runx2, and Bglap (Osteocalcine) among bone remodeling-related gene markers was confirmed by a quantitative reverse transcription-PCR.
After harvesting the cells, total RNA was isolated using Trizol, and in order to remove genomic DNA, DNase I was reacted at room temperature for 15 minutes and then treated with EDTA to inactivate DNase I.
Thereafter, the reverse transcription reaction was induced by using oligo dT primer as a primer to synthesize cDNA, and then real-time PCR was performed using sequence specific primers of each gene and SYBR Green. The analysis of the expression level was performed by using the relative quantification method for the target gene using the Gapdh gene as a control. The gene-specific primer sequence information for identifying the level of expression of the gene markers used to determine the degree of differentiation of osteoblasts and osteoclasts is shown in Table 1 below.
Expression levels of the three gene markers, Alp, Runx2, and Bglap related to bone remodeling for the D3G in differentiation-induced MC3T3-E1 cells were compared by the method as described above, and the results are shown in FIGS. 7a, 7b, and 7c. Statistical analysis was performed by student's t-test and expressed as *p<0.05 depending on significance level.

In assay [8] the test system is mixed culture of MC3T3-E1 pre-osteoblasts and mouse monocytes. Kind of assay: Mixed culture of osteoblast and osteoclast (ALP and TRAP activity). The class given is cell-based. Conditions: MC3T3-E1 plus monocytes mixed culture; 5 μg/mL. On the procedure:
In order to assess the maintenance of bone remodeling under the condition closer to the in vivo condition through the balanced action between osteogenesis and bone resorption by osteoblasts and osteoclasts, MC3T3-E1(2×10^4 cells/well), which are pre-osteoblasts, and monocytes (4×10^4 cells/well) obtained by extracting stem cells from the femoral region of the mouse and culturing them were mixed and cultured.
To the mixed culture of osteoblasts and osteoclasts, ascorbic acid (50 μg/ml) and β-glycerophosphate (10 mM) which are osteoblast differentiation-inducing agents were added to induce differentiation for 3 days and then treated with D3G fraction layer. After adding the D3G fraction layer (5 μg/mL) to the mixed culture solution, the activity of ALP which is an osteoblast differentiation marker and the activity of TRAP which is an osteoclast differentiation marker were measured. Statistical analysis was performed by student's t-test and expressed as *p<0.05 and **p<0.01 depending on significance level.

As for `CC(=C/C(=O)O)/C=C/[C@]1(O)[C@]2(C)CO[C@@]1(C)C[C@@H](OC1OC(CO)C(O)C(O)C1O)C2` (stereo partly drawn) [D3G, dihydrophaseic acid 3′-O-β-D-glucopyranoside], the “cell proliferation promoting effect at the optimal concentration” value with C3H10T1/2 cells [1] is “highest”. The “cell proliferation promoting effect at the optimal concentration” value in the assay with MC3T3-E1 cells [2] is on record as “highest”. Moreover, the “enhancing effect of cell ALP activity at 5 μg/mL” value with C3H10T1/2 cells [3] (5 μg/mL compared with 1 and 10 μg/ml) is recorded as “best effect”. Also, the ALP activity result with C3H10T1/2 cells [3] (1, 5 and 10 μg/ml, 48 hours, vs control) is “increase ALP activity”. Also, in the assay on MC3T3-E1 cells [4] (MC3T3-E1 cells, 5 μg/mL compared with 1 and 10 μg/ml), the “enhancing effect of cell ALP activity at 5 μg/mL” value is “best effect”. Moreover, the ALP activity entry with MC3T3-E1 cells [4] (differentiation induced MC3T3-E1 cells, 1, 5 and 10 μg/ml, 48 hours, vs control) is on record as “increase ALP activity”. In addition, the “mineralization (alizarin red S staining)” value in the assay on MC3T3-E1 cells [5] is “increase mineralization”. Also, in assay [6], the “TRAP activity (osteoclast differentiation marker)” value is “no significant change” and the “TRAP staining of differentiated osteoclast” value was “no significant change”. In addition, in the assay with MC3T3-E1 cells [7], the “expression level of Alp mRNA” value was “increased”, the “expression level of Bglap (Osteocalcin) mRNA” value is given as “increased” and the “expression level of Runx2 mRNA” value is recorded as “increased”. In assay [8], the “ALP activity in mixed culture” value is “increase” and the “TRAP activity in mixed culture” value is “increase”.
